The values below come from patent publication US20230374038A1, “MODULATORS OF CYSTIC FIBROSIS TRANSMEMBRANE CONDUCTANCE REGULATOR” (VERTEX PHARMACEUTICALS INCORPORATED, priority 2020, published 2023).

pEC50: −log10 of the molar value. Read-outs that look alike come from different tables or passages of the source. Some results are limits rather than exact numbers.

For data set [1] the following is noted: amide bond, 13-membered ring, CDMT/NMM, DMF.
For data set [2], the target named is T1, CFTR (Homo sapiens, UniProt P13569). In words: Membrane Potential Dye, Enteroid Assay B. Format: cell-based. To be noted: for pEC50: read-out: Ent. B EC50. The essentials:
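Human intestinal enteroids seeded at 5000 cells/well, treated with compound 18-24 h at 37 °C, then loaded 25 min with methyl oxonol membrane-potential dye plus CaCC blockers. Chloride transport started in chloride-free buffer with 10 μM forskolin, 100 μM IBMX and 300 nM Compound III, read 15 min; expressed as % of triple-combination control.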

For data set [3], the target named is T1, CFTR. In words: Membrane Potential Dye, Enteroid Assay A. Format: cell-based. As to conditions: for pEC50: read-out: Ent. A EC50. The procedure:
Base medium (ADF+++) consisted of Advanced DMEM/Ham's F12, 2 mM Glutamax, 10 mM HEPES, 1 µg/mL penicillin/streptomycin.
Intestinal enteroid maintenance medium (IEMM) consisted of ADF+++, 1× B27 supplement, 1× N2 supplement, 1.25 mM N-acetyl cysteine, 10 mM Nicotinamide, 50 ng/mL hEGF, 10 nM Gastrin, 1 pg/mL hR-spondin-1, 100 ng/mL hNoggin, TGF-b type 1 inhibitor A-83-01, 100 μg/mL Primocin, […] P38 MAPK inhibitor SB202190.
Bath 1 Buffer consisted of 1 mM MgCl2, 160 mM NaCl, 4.5 mM KCl, 10 mM HEPES, 10 mM Glucose, 2 mM CaCl2).
Chloride Free Buffer consisted of 1 mM Magnesium Gluconate, 2 mM Calcium Gluconate, 4.5 mM Potassium Gluconate, 160 mM Sodium Gluconate, 10 mM HEPES, 10 mM Glucose.
Bath1 Dye Solution consisted of Bath 1 Buffer, 0.04% Pluronic F127, […] Methyl Oxonol, 30 μM CaCCinh-A01, 30 μM Chicago Sky Blue.
Chloride Free Dye Solution consisted of Chloride Free Buffer, 0.04% Pluronic F127, 20 μM Methyl Oxonol, 30 μM CaCCinh-A01, 30 μM Chicago Sky Blue.
Chloride Free Dye Stimulation Solution consisted of Chloride Free Dye Solution, 10 μM forskolin, 100 μM IBMX, and 300 nM Compound III.
Human intestinal epithelial enteroid cells were obtained from the Hubrecht Institute for Developmental Biology and Stem Cell Research, Utrecht, The Netherlands and expanded in T-Flasks as previously described (Dekkers J F, Wiegerinck C L, de Jonge H R, Bronsveld I, Janssens H M, de Winter-de Groot K M, Brandsma A M, de Jong N W M, Bijvelds M J C, Scholte B J, Nieuwenhuis E E S, van den Brink S, Clevers H, van der Ent C K, Middendorp S and M Beekman J M. A functional CFTR assay using primary cystic fibrosis intestinal organoids. Nat Med. 2013 July; 19(7):939-45.).
Cells were recovered in cell recovery solution, collected by centrifugation at 650 rpm for 5 min at 4° C., resuspended in TryPLE and incubated for 5 min at 37° C. Cells were then collected by centrifugation at 650 rpm for 5 min at 4° C. and resuspended in IEMM containing 10 μM ROCK inhibitor (RI). The cell suspension was passed through a 40 μm cell strainer and resuspended at 1×10^6 cells/mL in IEMM containing 10 μM RI. Cells were seeded at 5000 cells/well into multi-well plates and incubated for overnight at 37° C., 95% humidity and 5% CO2 prior to assay.
Enteroid cells were incubated with test compound in IEMM for 18-24 hours at 37° C., 95% humidity and 5% CO2. […] Briefly, cells were washed 5 times in Bath 1 Buffer. Bath 1 Dye Solution was added, and the cells were incubated for 25 min at room temperature. Following dye incubation, cells were washed 3 times in Chloride Free Dye Solution. Chloride transport was initiated by addition of Chloride Free Dye Stimulation Solution and the fluorescence signal was read for 15 min. […] Chloride transport was then expressed as a percentage of the chloride transport following treatment with 3 μM (S)—N-((6-aminopyridin-2-yl)sulfonyl)-6-(3-fluoro-5-isobutoxyphenyl)-2-(2,2,4-trimethylpyrrolidin-1-yl)nicotinamide, 3 μM (R)-1-(2,2-difluorobenzo[d][1,3]dioxol-5-yl)-N-(1-(2,3-dihydroxypropyl)-6-fluoro-2-(1-hydroxy-2-methylpropan-2-yl)-1H-indol-5-yl)cyclopropanecarboxamide and 300 nM acute N-[2,4-bis(1,1-dimethylethyl)-5-hydroxyphenyl]-1,4-dihydro-4-oxoquinoline-3-carboxamide triple combination control (% Activity).

T1 sequence (P13569 with tags, fused parts or gaps DEL508-508): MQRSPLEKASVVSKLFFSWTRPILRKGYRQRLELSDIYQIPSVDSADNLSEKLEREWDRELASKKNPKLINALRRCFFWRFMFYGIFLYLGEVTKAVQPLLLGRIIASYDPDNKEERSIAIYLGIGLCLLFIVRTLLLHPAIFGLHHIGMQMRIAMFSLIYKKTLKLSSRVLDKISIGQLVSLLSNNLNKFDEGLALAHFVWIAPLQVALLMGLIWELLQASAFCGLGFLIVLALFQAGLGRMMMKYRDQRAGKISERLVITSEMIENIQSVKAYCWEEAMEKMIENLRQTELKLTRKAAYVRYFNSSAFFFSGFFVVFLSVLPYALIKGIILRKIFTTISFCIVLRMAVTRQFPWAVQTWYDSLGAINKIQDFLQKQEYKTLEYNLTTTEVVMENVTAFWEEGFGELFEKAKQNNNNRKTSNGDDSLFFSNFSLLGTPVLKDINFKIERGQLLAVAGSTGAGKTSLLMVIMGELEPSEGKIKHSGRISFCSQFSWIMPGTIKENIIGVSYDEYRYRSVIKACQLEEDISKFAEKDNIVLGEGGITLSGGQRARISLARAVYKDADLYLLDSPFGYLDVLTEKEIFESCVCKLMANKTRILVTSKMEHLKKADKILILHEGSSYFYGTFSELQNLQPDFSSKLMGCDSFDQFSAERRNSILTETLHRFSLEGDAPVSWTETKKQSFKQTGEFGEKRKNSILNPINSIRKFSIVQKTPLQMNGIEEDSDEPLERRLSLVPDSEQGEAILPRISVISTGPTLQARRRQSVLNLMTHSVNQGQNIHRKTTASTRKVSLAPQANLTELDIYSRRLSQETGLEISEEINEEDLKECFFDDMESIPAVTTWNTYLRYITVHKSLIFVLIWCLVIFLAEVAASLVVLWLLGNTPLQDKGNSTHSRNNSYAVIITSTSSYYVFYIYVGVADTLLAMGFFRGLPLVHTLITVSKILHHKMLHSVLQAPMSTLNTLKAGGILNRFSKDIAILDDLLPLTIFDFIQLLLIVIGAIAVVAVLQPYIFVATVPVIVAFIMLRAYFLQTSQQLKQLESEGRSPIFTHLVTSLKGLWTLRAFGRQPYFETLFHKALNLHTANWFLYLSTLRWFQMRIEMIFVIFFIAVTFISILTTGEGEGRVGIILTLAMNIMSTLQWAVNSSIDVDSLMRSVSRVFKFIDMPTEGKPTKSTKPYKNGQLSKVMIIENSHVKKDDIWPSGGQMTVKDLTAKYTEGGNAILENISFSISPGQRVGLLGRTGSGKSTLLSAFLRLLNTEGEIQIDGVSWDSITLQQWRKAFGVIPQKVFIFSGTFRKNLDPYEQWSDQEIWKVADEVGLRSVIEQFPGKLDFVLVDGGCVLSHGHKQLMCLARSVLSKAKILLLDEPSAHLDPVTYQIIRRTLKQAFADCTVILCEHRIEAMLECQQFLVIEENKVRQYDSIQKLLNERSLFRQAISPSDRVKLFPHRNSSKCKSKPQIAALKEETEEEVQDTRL

Take “(5P,11R)-11-(2,2-dimethylpropyl)-7-methyl-6-[2-methyl-6-(3-methylbutyl)phenyl]-12-{[5-(propan-2-yloxy)pyrimidin-2-yl]methyl}-9-oxa-2λ^6-thia-3,5,12,19-tetraazatricyclo[12.3.1.14,8]nonadeca-1(17),4(19),5,7,14(18),15-hexaene-2,2,13-trione”: in data set [1] (33.8 mM), the ring closure, yield after HPLC amounted to 45%.
In data set [1] (2 steps), “(5M,11R)-11-(2,2-dimethylpropyl)-12-({5-[(2,2-dimethylpropyl)(methyl)amino]pyrimidin-2-yl}methyl)-7-methyl-6-[2-methyl-6-(2-methylpropyl)phenyl]-9-oxa-2λ^6-thia-3,5,12,19-tetraazatricyclo[12.3.1.14,8]nonadeca-1(17),4(19),5,7,14(18),15-hexaene-2,2,13-trione” had a ring closure, yield after HPLC of 20%.
With “(5P,11R)-6-(2-cyclopropyl-6-methyl-phenyl)-11-(2,2-dimethylpropyl)-7-methyl-12-[(5-morpholinopyrimidin-2-yl)methyl]-2,2-dioxo-9-oxa-2^6-thia-3,5,12,19-tetrazatricyclo[12.3.1.14,8]nonadeca-1(18),4(19),5,7,14,16-hexaen-13-one”, the ring closure, yield after HPLC in data set [1] (122.0 mM) came to 25%.
`Cc1cccc(COC(C)C)c1-c1nc2nc(c1C)OC[C@@H](CC(C)(C)C)N(Cc1ncc(N3CCC(C)(C)C3)cn1)C(=O)c1cccc(c1)S(=O)(=O)N2`: the ring closure, yield after HPLC in data set [1] (from Cc1cccc(COC(C)C)c1-c1nc(NS(=O)(=O)c2cccc(C(=O)O)c2)nc(OC[C@@H](CC(C)(C)C)NCc2ncc(N3CCC(C)(C)C3)cn2)c1C, 11.0 mM, 5.0 h, 2 steps) is 13%.
Consider `Cc1cccc(C)c1-c1nc2nc(c1OC(C)C)OC[C@@H](CC(C)C)N(C1CC3(CCN(C)CC3)C1)C(=O)c1cccc(c1)S(=O)(=O)N2` [Compound 176], for which, at CFTR [2], the “Ent. B Max Activity” value is listed as “+++ (+++ is >60%)” and the pEC50 (as a rule, the negative decadic logarithm of the EC50, by convention in mol/L) is greater than 6.00. On CFTR [3], the “Ent. A Max Activity” value is listed as “+++ (+++ is >60%)” and the pEC50 was greater than 6.00.
`CC(C)C[C@@H]1COc2nc(nc(-c3ccccc3C(C)C)c2C(F)(F)F)NS(=O)(=O)c2cccc(c2)C(=O)N1` [Compound 164, (11R)-11-Isobutyl-6-(2-isopropylphenyl)-2,2-dioxo-7-(trifluoromethyl)-9-oxa-2λ^6-thia-3,5,12,19-tetrazatricyclo[12.3.1.14,8]nonadeca-1(18),4,6,8(19),14,16-hexaen-13-one]: at CFTR [2], the “Ent. B Max Activity” value is on record as “+++ (+++ is >60%)” and the pEC50 is greater than 6.00. Further, at CFTR [3], the “Ent. A Max Activity” value was “+++ (+++ is >60%)” and the pEC50 was greater than 6.00.
`CCc1c2nc(nc1-c1cccc(OCC(C)C)c1)NS(=O)(=O)c1cccc(c1)NC(=O)c1cccc(c1)O2` [Compound 27]: on CFTR [3], the “Ent. A Max Activity” value is “+ (+ is <30%)” and the pEC50 is greater than 6.00.
For the compound `CCOc1ccccc1-c1nc2nc(c1CC)Oc1cccc(c1)C(=O)Nc1cccc(c1)S(=O)(=O)N2` [Compound 24], on CFTR [3], the “Ent. A Max Activity” value is “+ (+ is <30%)” and the negative logarithm of the EC50 (pEC50) is 5.52 to 6.00.
For `CCc1c2nc(nc1-c1c(C)cccc1OC)NS(=O)(=O)c1cccc(c1)NC(=O)c1cccc(c1)O2` [Compound 6, 4-Ethyl-5-(2-methoxy-6-methylphenyl)-2-oxa-9λ^6-thia-6,8,15,23-tetraazatetracyclo[15.3.1.13,7.110,14]tricosa-1(21),3,5,7(23),10(22),11,13,17,19-nonaene-9,9,16-trione], at CFTR [3], the “Ent. A Max Activity” value is “++ (++ is 30-60%)” and the pEC50 is 5.52 to 6.00.
For the compound `CCc1c2nc(nc1-c1c(C)cccc1C)NS(=O)(=O)c1cccc(c1)C(=O)N(C1CC3(CCN(C)CC3)C1)[C@H](CC(C)C)CO2` [Compound 159, (11R)-6-(2,6-Dimethylphenyl)-7-ethyl-11-isobutyl-12-(7-methyl-7-azaspiro[3.5]nonan-2-yl)-2,2-dioxo-9-oxa-2λ^6-thia-3,5,12,19-tetrazatricyclo[12.3.1.14,8]nonadeca-1(17),4(19),5,7,14(18),15-hexaen-13-one], at CFTR [2], the “Ent. B Max Activity” value is on record as “+++ (+++ is >60%)” and the pEC50 is greater than 6.00. Further, on CFTR [3], the “Ent. A Max Activity” value is on record as “+++ (+++ is >60%)” and the pEC50 was greater than 6.00.
Take `CC(C)CCc1ccccc1-c1nc2nc(c1C(F)(F)F)OC1CN(Cc3ccccc31)C(=O)c1cccc(c1)S(=O)(=O)N2` (stereo not drawn) [Compound 41]: on CFTR [3], the “Ent. A Max Activity” value is reported as “+++ (+++ is >60%)” and the pEC50 was greater than 6.00.
As for `CC(C)Oc1cccc(-c2nc3nc(c2C(F)(F)F)OC2CN(Cc4ccccc42)C(=O)c2cccc(c2)S(=O)(=O)N3)c1` (stereo not drawn) [Compound 42], on CFTR [3], the “Ent. A Max Activity” value is recorded as “+ (+ is <30%)” and the pEC50 was greater than 6.00.
On to `Cc1cccc(C)c1-c1nc2nc(c1OC(C)C)OC[C@@H](CC(C)C)N(C1CC3(CCN(C(=O)OC(C)(C)C)CC3)C1)C(=O)c1cccc(c1)S(=O)(=O)N2` [Compound 177], for which, on CFTR [2], the “Ent. B Max Activity” value is reported as “+++ (+++ is >60%)” and the pEC50 is greater than 6.00. For the same compound, on CFTR [3], the “Ent. A Max Activity” value is “+++ (+++ is >60%)” and the pEC50 was greater than 6.00.
Turning to `CC(C)(C)c1c2nc(nc1-c1ccccc1)NS(=O)(=O)c1cccc(c1)C(=O)N1Cc3ccccc3C(C1)O2` (stereo not drawn) [Compound 46], on CFTR [3], the “Ent. A Max Activity” value is “+ (+ is <30%)”.
The same measure, in the same setting: under `CCc1c2nc(nc1-c1cccnc1OC)NS(=O)(=O)c1cccc(c1)NC(=O)c1cccc(c1)O2` [Compound 20] stands “+ (+ is <30%)”; under `CC(C)Oc1cccc(-c2nc3nc(c2C(C)(C)C)OC2CN(Cc4ccccc42)C(=O)c2cccc(c2)S(=O)(=O)N3)c1` (stereo not drawn) [Compound 44], “+ (+ is <30%)”.
As for `CCc1c2nc(nc1-c1c(C)cccc1C)NS(=O)(=O)c1cccc(c1)C(=O)N(C1CC3(CCN(C(=O)OC(C)(C)C)CC3)C1)[C@H](CC(C)C)CO2` [Compound 158, tert-butyl 2-[(11R)-6-(2,6-dimethylphenyl)-7-ethyl-11-isobutyl-2,2,13-trioxo-9-oxa-2λ^6-thia-3,5,12,19-tetrazatricyclo[12.3.1.14,8]nonadeca-1(17),4(19),5,7,14(18),15-hexaen-12-yl]-7-azaspiro[3.5]nonane-7-carboxylate], at CFTR [2], the “Ent. B Max Activity” value is given as “+++ (+++ is >60%)” and the pEC50 is greater than 6.00. Moreover, on CFTR [3], the “Ent. A Max Activity” value is “+++ (+++ is >60%)” and the pEC50 is greater than 6.00.
Turning to `CCc1c2nc(nc1-c1c(C)cccc1C)NS(=O)(=O)c1cccc(c1)C(=O)N[C@H](CC(C)C)CO2` [Compound 190], on CFTR [2], the “Ent. B Max Activity” value was “+++ (+++ is >60%)” and the pEC50 is greater than 6.00. At CFTR [3], the “Ent. A Max Activity” value is reported as “+++ (+++ is >60%)” and the pEC50 was greater than 6.00.
Consider `Cc1ncccc1-c1nc2nc(c1C(C)(C)C)OC1CN(Cc3ccccc31)C(=O)c1cccc(c1)S(=O)(=O)N2` (stereo not drawn) [Compound 45], for which the “Ent. A Max Activity” value at CFTR [3] is on record as “+ (+ is <30%)”.
`CCc1c2nc(nc1-c1cccc(OC(C)C)c1)NS(=O)(=O)c1cccc(c1)NC(=O)c1cccc(c1)O2` [Compound 28]: on CFTR [3], the “Ent. A Max Activity” value was “+ (+ is <30%)” and the pEC50 was 5.52 to 6.00.
Consider `CCc1c2nc(nc1-c1cnccc1C)NS(=O)(=O)c1cccc(c1)NC(=O)c1cccc(c1)O2` [Compound 21], for which the “Ent. A Max Activity” value at CFTR [3] is reported as “+ (+ is <30%)”.
